# Results from article PMC5872333, “Antifungal Potential of Host Defense Peptide Mimetics in a Mouse Model of Disseminated Candidiasis” (Journal of Fungi, 2018).
# Read-outs that look alike come from different tables or passages of the source.
# Experiments:
# C. albicans [1] = assay: Yeast membrane permeability, propidium iodide incorporation (flow cytometry); type: cell-based, Candida albicans
# Protocol: C. albicans was suspended in RPMI/MOPS media to a total concentration of 2 × 10^6 cfu/mL. One ml aliquots of the C. albicans suspension were treated with each mimetic compound at a concentration of 32 µg/mL, using 95% ethanol as positive control. Samples were incubated with the mimetics at 30 °C for 0, 5, 15 and 30 min. After treatment, samples were centrifuged at 5000 rpm for 5 min. Supernatants were removed and pellets were washed twice with 1 mL of PBS. […] Samples were analyzed by flow cytometry (FACSCalibur, Becton Dickinson, Immunocytometry Systems, San Jose, CA, USA) to assess percent uptake of PI.
# [2] = system: Candida albicans, strain SC5314; assay: MIC/MFC, CLSI broth microdilution, C. albicans; type: cell-based
# Protocol: (§1) A standard invasive candidiasis strain of C. albicans SC5314 was used for peptide mimetic compounds screening. Non-albicans Candida species (NAC) C. dubliniensis (NCPF3949), C. glabrata (ATCC 90030), C. krusei (ATCC 6258), C. parapsilosis (ATCC 22019) and C. tropicalis (ATCC 750) (obtained from the laboratory of David Perlin, PHRI/Rutgers), were cultured on YPD (1% yeast extract, 2% peptone, 2% dextrose, pH 5.7) agar at 37°C and were used for all experimental studies. Fluconazole resistant clinical isolates of C. glabrata from five different patients and C. tropicalis from one patient were collected from the clinical microbiology laboratory, Shands Hospital, University of Florida, Gainesville, FL, USA.
# (§2) Candida albicans […], NAC species and fluconazole-resistant clinical isolates of invasive candidiasis strains of C. glabrata and C. tropicalis were used for minimum inhibitory concentration (MIC) and minimum fungicidal concentration (MFC) studies of lead compounds. MICs were determined using the Clinical and Laboratory Standards Institute (CLSI) standard broth microdilution method. Suspensions of C. albicans were prepared by measuring optical density at 595 nm (OD595) of 1.0 in phosphate buffered saline (PBS). HDP mimetic compounds were diluted in 50 µL RPMI/MOPS cell culture medium in a 96-well plate (tissue culture treated; Costar, Corning Incorporated, Corning, NY, USA). To each well, a suspension (50 µL) of Candida was added, and then plate was incubated at 37 °C in a humidified chamber for a period of 24 h. To determine the MFC, a sample (100 µL) from the well defined as having the MIC and the wells with other three higher concentrations were plated onto YPD agar. Candida colonies were observed after 24 h. The MFC is defined as the lowest concentration of compound at which no colonies are observed. All MIC and MFC assays were performed in duplicate.
# whole human blood = assay: Hemolysis assay; type: cell-based; settings: 0.5 h, 30 min, 37 °C
# Protocol: Peptide mimetic compounds were tested in duplicate using a hemolysis assay previously published. Briefly, two-fold serial dilutions starting at 2 mg/mL in 150 mM NaCl (saline), 20% DMA (Alfa Aesar, Ward Hill, MA, US), or 10% kleptose in saline. 3% saponin (Fluka) in saline was used as a positive control. Each dilution of each compound (25 µL) was plated in a 96-well round bottomed plate and 25 µL of whole human blood (BIORECLAMATION, Westbury, NY, USA) was added to each sample and mixed for 10 second. The blood was Type O, from 2 males and 2 females, collected with potassium EDTA to prevent clotting. Plates were incubated on a shaker for 30 min at 37 °C, then centrifuged at 600× g for 5 min. 5 µL of the supernatant was transferred to a 96-well flat-bottomed plate with 200 µL H2O in each well and mixed for 5 min. Absorbance was read at 405 nm (Spectramax 250, Molecular Devices, San Jose, CA, USA). Percent hemolysis was then calculated as:
# P = (OD405 (PMX compound) – OD405 (control))/(OD405 (Saponin) – OD405 (control))
# Curves were fitted to report an HC50 (50% hemolysis) value for each compound: […]
# [3] = system: C. parapsilosis (ATCC 22019); assay: MIC broth microdilution, C. parapsilosis; type: cell-based, Candida parapsilosis; settings: Lodderomyces parapsilosis, ATCC22019; read-out: NAC species MIC, C. parapsilosis
# Protocol: as §1, §2
# C. tropicalis (ATCC 750) = assay: MIC broth microdilution, C. tropicalis; type: cell-based; settings: Candida tropicalis, ATCC750; read-out: NAC species MIC, C. tropicalis
# Protocol: as §1, §2
# [4] = Mammalian cell cytotoxicity, MTS viability assay, 3T3; type: cell-based; settings: mouse, 3T3 fibroblasts (ATCC CRL-1658), 3T3 cells, 1 h exposure without serum
# Protocol: Cytotoxicity (50% effective concentration (EC50)) was determined against mouse 3T3 fibroblasts (ATCC CRL-1658), OKF6/TERT-1 cells (oral keratinocytes), and human transformed liver HepG2 cells (ATCC HB-8065), using an MTS viability assay (Promega, Fitchburg, WI, USA). Growth medium was replaced with medium without serum, and eight 2-fold dilutions of compound were added. Following incubation for 1 h at 37 °C, compounds were removed, and medium containing serum was returned. Viability was determined using an MTS viability assay (CellTiter 96 aqueous nonradioactive cell proliferation assay, Promega).
# C. krusei (ATCC 6258) = assay: MIC broth microdilution, C. krusei; type: cell-based, Candida krusei; settings: Pichia kudriavzevii, ATCC6258; read-out: NAC species MIC, C. krusei
# Protocol: as §1, §2
# [5] = system: C. dubliniensis (NCPF3949); assay: MIC broth microdilution, C. dublinensis; type: cell-based; settings: Candida dubliniensis, read-out: NAC species MIC, C. dublinensis
# Protocol: as §1, §2
# C. glabrata (ATCC 90030) = assay: MIC broth microdilution, C. glabrata; type: cell-based, Candida glabrata; settings: Nakaseomyces glabratus, ATCC90030; read-out: NAC species MIC, C. glabrata
# Protocol: as §1, §2
# [6] = Maximum tolerated dose (MTD) determination; settings: mouse, in vivo, sc
# Protocol: Female CD-1 mice (Charles River Laboratories), 8–10 weeks old, >20 g were used to determine the MTD. Mice were housed individually in stainless steel, wire-bottom cages to minimize access to urine and feces and fed Harlan Teklad Certified Global Diet® with tap water ad libitum. Mice were acclimated to the study room at least 3 days prior to dosing. Mice (3 per group) were dosed with a subcutaneous (SC) bolus injection beginning with 10 mg/kg of the test compound at a concentration of 2 mg/mL. Doses were lowered two-fold for subsequent groups to find the MTD. The dose volume was […], calculated using the weight of the animal on the day of injection. There were 3 dose events, with 2 days between each event. […] Body weights were obtained daily until the day of euthanization with a CO2 overdose. Any mortality during the study was also recorded. MTD data were obtained by Ricerca Biosciences, LLC, Concord, OH, USA. MTD of each HDP mimetic in CD-1 mice was determined and our studies utilized doses beginning with 0.5X MTD.
# C. albicans [7] = assay: MIC assay in the presence of CaCl2 (divalent cation inhibition); type: cell-based; settings: Candida albicans, 2.5 mM CaCl2
# Protocol: as §2, with “The MFC is defined as the lowest concentration of compound at which no colonies are observed. All MIC and MFC assays were performed in duplicate.” left out
# To assess the effect of a divalent cations on the electrostatic interaction between mimetics and cell membrane of yeast, we used calcium chloride at concentrations of 2, 5, 7.5 and 10 […]. […] At each concentration of this cation, the MIC of mimetics were determined by the method described above.
# C. albicans SC5314 = assay: Immunosuppressed mouse model of invasive candidiasis, kidney burden; type: in vivo, CD-1 mice; settings: 20 mg/kg by gavage 2 h after infection, 24 h, average of four independent experiments
# Protocol: C. albicans SC5314 were grown in YPD broth (Difco laboratories, Detroit, MI, USA) and stock cultures were stored at −80 °C. The frozen stocks were first grown on YPD plates and kept at 4 °C. Prior to each experiment, a stock inoculum suspension of Candida was prepared in YPD broth and incubated at 30 °C with shaking at 200 rpm for 12 h. The culture was washed twice with sterile 1X phosphate buffered saline (PBS), counted with a hemocytometer, and diluted with PBS to get the desired concentration of 3.5 × 10^5 cfu/mL. 100 µL was injected intravenously (IV) into each mouse via the tail vein. […]
# Male CD-1 mice, 6–8 weeks old (20–22 g), were made neutropenic with two intraperitoneal (IP) injections of 150 mg/kg in 10 mL/kg cyclophosphamide four days and one day before inoculation. […] 2 h after C. albicans inoculation, mimetic compounds were injected subcutaneously (SC) at 0.5X of the MTD (determined by […] as described). Fluconazole (20 mg/kg) was administered to another group by oral gavage at 2 h post inoculation, as a positive control for the experiments, to confirm the ability to quantify an effect on kidney burden. […] Serial dilutions of the tissue homogenates were conducted, 0.1 mL aliquots were spread on YPD agar plates, and the plates incubated at 35 °C overnight. cfu/g kidneys were determined from colony counts. […]
# [8] = C. albicans SC5314, 50% human serum, read-out: MIC+50% Human serum
# [9] = C. albicans SC5314, without human serum
# [10] = C. albicans SC5314, without human serum, 24 h, read-out: MIC
# [11] = 32 µg/mL HDP mimetic, C. albicans
Structure (SMILES),"PI entered the cell (C. albicans [1]; positive control, within 7 min)","MIC [2, 8]","MFC [2, 9]","MIC [2, 10]",EC50 (whole human blood),MIC [3],MIC (C. tropicalis (ATCC 750)),EC50 at 1 h [4],MIC (C. krusei (ATCC 6258)),MIC [5],MIC (C. glabrata (ATCC 90030)),time to maximum incorporation of PI (C. albicans [1]; [11]),MTD [6],MIC (C. albicans [7]),"rate of membrane activity (PI incorporation) (C. albicans [1]; 32 µg/mL HDP mimetic, C. albicans, comparison among compounds)",log10 reduction in kidney cfu (C. albicans SC5314)
"CCO [95% ethanol, ethanol, reference compound]",100%,–,–,–,–,–,–,–,–,–,–,–,–,–,–,–
N=C(N)N1CCN(c2ccc(-c3cc(-c4ccc(N5CCN(C(=N)N)CC5)cc4)ncn3)cc2)CC1 [Compound 1],–,4 µg/mL,8 µg/mL,4 µg/mL,> 1.79 mM,4 to 8 µg/mL,4 to 8 µg/mL,311 µM,32 µg/mL,8 µg/mL,4 µg/mL,30 min,10 mg/kg free base,–,–,–
N=C(N)NCCCc1cc(CCCNC(=N)N)cc(NC(=O)c2ccc(C(=O)Nc3cc(CCCNC(=N)N)cc(CCCNC(=N)N)c3)cc2)c1 [Compound 2],–,4 µg/mL,16 µg/mL,4 µg/mL,> 1.16 mM,1 µg/mL,8 µg/mL,358 µM,8 µg/mL,32 µg/mL,8 µg/mL,30 min,10 mg/kg free base,> 60 µg/mL,–,–
NCCCOc1cc(OCCCN)cc(-c2ccc3c(c2)c2cc(-c4cc(OCCCN)cc(OCCCN)c4)ccc2n3CCCN)c1 [Compound 4],–,4 µg/mL,8 µg/mL,4 µg/mL,> 1.17 mM,2 µg/mL,2 to 4 µg/mL,436 µM,16 µg/mL,4 µg/mL,2 µg/mL,–,20 mg/kg free base,–,most rapid membrane activity,–
"OC(Cn1cncn1)(Cn1cncn1)c1ccc(F)cc1F [Fluconazole, fluconazole, reference compound]",–,–,–,0.25 µg/mL,–,–,–,–,–,–,–,–,–,–,–,3 log
